Measurements from patent US8758822B2, “Method for manufacturing uniform size polymeric nanoparticles containing poorly soluble drugs” (Korea Research Institute of Bioscience and Biotechnology, priority 2008, dated 2014).

What was measured:
[1] = test system: ICR rats; test: Acute toxicity test; assay type: in vivo; details: for Fatality rate / No. of dead rats: after 1 week
Excerpt: Acute toxicity was investigated upon administering the PLGA-BDD nanoparticles of the present invention prepared via Example 2.

[2] = taken as a form of tablet; cited from earlier work
[3] = test system: carbon tetrachloride-induced liver damage; details: administered 2 weeks, CCl4 continued to 3 and 4 weeks; FIGS. 6 and 7
Procedure: (§1) 1. For Group 1 (control group), 0.75 ml/kg of carbon tetrachloride was injected each time into the peritoneal cavity 2 times a week (Mondays & Fridays) for 4 weeks, and no additional compounds was administered any more.

[4] = test system: carbon tetrachloride-induced liver damage; test: Treatment effects on carbon tetrachloride-induced liver damage; assay type: in vivo, Sprague Dawley rats; details: blood serum after 4 weeks; for Relative concentration of ALT against the control group: 25 mg/kg oral; for ALT* (average ALT concentration ± deviation): 25 mg/kg oral once a day, 6 times a week, CCl4 0.75 ml/kg i.p. 2 times a week
Procedure: 6-week old 20 male Sprague Dawley rats (Orient Bio, Korea) were weighed and distributed to 4 groups 5 to each group to be equal in average weight and degree of dispersion. Under the condition of 23±2′C of temperature and 55±5% of relative humidity in an animal facility, 0.75 ml/kg of 50% solution (v/v) (Sigma-Aldrich, USA) of liver toxic carbon tetrachloride (CCl4) mixed with corn oil was injected each time into the peritoneal cavity 2 times a week (Mondays & Fridays) for 4 weeks.
as §1
2. For Group 2, in addition to the 0.75 ml/kg of carbon tetrachloride injection each time into the peritoneal cavity 2 times a week (Mondays & Fridays) for 4 weeks, BDD equivalent to 25 mg per 1 kg of body weight of each rat, which was suspended in 1% (w/v) of CMC (carboxylmethyl cellulose sodium salt, Sigma-Aldrich, USA) solution were orally administered each time once a day, 6 times a week for 4 weeks.
3. For Group 3, in addition to the 0.75 ml/kg of carbon tetrachloride injection each time into the peritoneal cavity 2 times a week (Mondays & Fridays) for 4 weeks, BDD-containing polymeric nanoparticles of the present invention prepared via Example 2 equivalent to 25 mg per 1 kg of body weight of each rat, which were suspended in 1% (w/v) of CMC (Carboxylmethyl cellulose sodium salt, Sigma-Aldrich, USA) solution were orally administered each time once a day, 6 times a week for 4 weeks.
4. For Group 4 (no treatment group), no carbon tetrachloride and compounds were administered.
In detail, after 4 weeks, each animal was anesthetized by injecting 4% of 4 ml-chloral hydrate (BDH Laboratory Supplies, U.K.) Into the peritoneal cavity, and blood was taken out from the heart and left at a room temperature for an hour. After then, blood serum was obtained by spinning down at 16000 rpm for 20 minutes, and ALT and AST concentrations were measured by an automatic blood biochemistry analyzer (HITACHI 7080, HITACHI, Japan) using an ALT and AST test reagents (TA-Test Wako; WAKO Pure Chemical, Japan).

COC(=O)c1cc(OC)c2c(c1-c1c(C(=O)OC)cc(OC)c3c1OCO3)OCO2 [BDD, biphenyl-dimethyl-dicarboxylate]
Fatality rate ([1]; 0.005 g per kg oral): 0%
No. of dead rats ([1]; 0.005 g per kg oral): 0
Fatality rate ([1]; 0.1 g per kg oral): 0%
No. of dead rats ([1]; 0.1 g per kg oral): 0
Fatality rate ([1]; 0.25 g per kg oral): 0%
No. of dead rats ([1]; 0.25 g per kg oral): 0
Fatality rate ([1]; 0.5 g per kg oral): 0%
No. of dead rats ([1]; 0.5 g per kg oral): 0
Fatality rate ([1]; 1 g per kg oral): 0%
No. of dead rats ([1]; 1 g per kg oral): 0
LD50 ([1]; oral): >2000 mg/kg
bioavailability [2]: 20-30%
inhibiting effect on increase of carbon tetrachloride-induced ALT and AST concentration over time [3]: rebounded after 4 weeks
Relative concentration of ALT against the control group ([4]; Table 2): 42%
ALT* (average ALT concentration ± deviation) ([4]; Table 2): 229.6 ± 99.7 SF IU/l
Relative concentration of ALT against the control group ([4]; Table 3): 52.9%
ALT* (average ALT concentration ± deviation) ([4]; Table 3): 479.7 ± 144.8 SF IU/l
